Source: patent US10023570B2 (Array BioPharma, Inc., priority 2015, dated 2018)
Where “and” joins values, the source holds several entries; their conditions need not be identical. Identical values can stand only once. Counter-ions that a name gives are not always drawn.

Biological target: human KDR protein in HEK-293 cells (Homo sapiens (Human), UniProt P35968)
Test: KDR Cell Assay (phospho-KDR in HEK-293 cells expressing inducible KDR)
Type: cell-based
Settings: pKDR Cell HEK 10% FBS IC50, HEK-293 cells expressing inducible KDR, VEGF stimulated
In short: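 HEK-293 cells with inducible human KDR were treated with compound for 1 h in DMEM (0.25% DMSO final), then lysed. Phospho-KDR was quantified by Meso Scale immunoassay, expressed as percent of control, and IC50 taken where a 4-parameter logistic fit crossed 50 POC.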

human KDR protein in HEK-293 cells, sequence (P35968 20-1356): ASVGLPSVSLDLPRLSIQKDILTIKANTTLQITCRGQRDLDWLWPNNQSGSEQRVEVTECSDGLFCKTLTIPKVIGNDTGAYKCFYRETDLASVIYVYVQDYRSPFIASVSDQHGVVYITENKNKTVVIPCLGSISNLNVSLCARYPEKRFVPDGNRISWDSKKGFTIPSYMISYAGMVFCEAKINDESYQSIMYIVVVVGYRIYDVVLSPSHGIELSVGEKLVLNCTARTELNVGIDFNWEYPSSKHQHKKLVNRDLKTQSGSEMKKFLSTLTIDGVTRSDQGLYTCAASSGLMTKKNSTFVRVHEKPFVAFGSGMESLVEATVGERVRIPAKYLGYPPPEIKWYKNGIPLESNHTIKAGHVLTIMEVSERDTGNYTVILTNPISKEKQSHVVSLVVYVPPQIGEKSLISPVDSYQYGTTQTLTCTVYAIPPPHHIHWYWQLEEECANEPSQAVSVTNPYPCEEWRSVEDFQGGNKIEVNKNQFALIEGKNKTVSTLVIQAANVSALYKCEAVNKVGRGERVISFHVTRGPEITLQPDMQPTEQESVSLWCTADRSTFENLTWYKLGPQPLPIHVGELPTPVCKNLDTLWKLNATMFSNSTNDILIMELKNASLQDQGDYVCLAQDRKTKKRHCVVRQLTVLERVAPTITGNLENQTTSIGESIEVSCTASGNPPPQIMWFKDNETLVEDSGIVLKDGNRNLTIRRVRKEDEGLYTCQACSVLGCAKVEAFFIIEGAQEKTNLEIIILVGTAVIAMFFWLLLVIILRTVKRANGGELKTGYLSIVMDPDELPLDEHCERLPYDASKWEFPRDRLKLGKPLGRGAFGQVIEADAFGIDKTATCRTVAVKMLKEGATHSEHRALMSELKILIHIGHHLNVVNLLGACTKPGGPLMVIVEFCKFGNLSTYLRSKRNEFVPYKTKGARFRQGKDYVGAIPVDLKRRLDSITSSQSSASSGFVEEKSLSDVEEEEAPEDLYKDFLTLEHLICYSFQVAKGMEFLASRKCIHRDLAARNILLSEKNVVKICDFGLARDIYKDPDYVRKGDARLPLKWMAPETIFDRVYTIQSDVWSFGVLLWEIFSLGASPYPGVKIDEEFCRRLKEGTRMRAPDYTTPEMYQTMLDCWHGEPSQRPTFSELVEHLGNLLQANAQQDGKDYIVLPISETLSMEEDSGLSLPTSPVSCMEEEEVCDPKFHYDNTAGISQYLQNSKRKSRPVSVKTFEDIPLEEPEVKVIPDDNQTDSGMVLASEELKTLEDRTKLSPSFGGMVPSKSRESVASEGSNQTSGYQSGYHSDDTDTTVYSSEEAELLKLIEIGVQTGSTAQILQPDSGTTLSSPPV

SMILES | IC50 (10% FBS) [nM] | IC50
Cn1cc(-c2cc(-c3ccc(N4CCN(C(=O)Cc5ccn(C)n5)CC4)nc3)c3c(C#N)cnn3c2)cn1 [Example 42, 4-(6-(4-(2-(1-methyl-1H-pyrazol-3-yl)acetyl)piperazin-1-yl)pyridin-3-yl)-6-(1-methyl-1H-pyrazol-4-yl)pyrazolo[1,5-a]pyridine-3-carbonitrile 2,2,2-trifluoroacetate] | 502 | –
Cn1cc(-c2cc(-c3ccc(N4CCN(C(=O)[C@@H](O)Cc5ccccc5)CC4)nc3)c3c(C#N)cnn3c2)cn1 [Example 4] | 328 | –
Cn1cc(-c2cc(-c3ccc(N4CCN(C(=O)c5ccccc5)CC4)nc3)c3c(C#N)cnn3c2)cn1 [Example 69, 4-(6-(4-benzoylpiperazin-1-yl)pyridin-3-yl)-6-(1-methyl-1H-pyrazol-4-yl)pyrazolo[1,5-a]pyridine-3-carbonitrile] | 117 | –
Cn1cc(-c2cc(-c3ccc(N4CCN(C(=O)[C@H](O)Cc5ccccc5)CC4)nc3)c3c(C#N)cnn3c2)cn1 [Example 9, (R)-4-(6-(4-(2-hydroxy-3-phenylpropanoyl)piperazin-1-yl)pyridin-3-yl)-6-(1-methyl-1H-pyrazol-4-yl)pyrazolo[1,5-a]pyridine-3-carbonitrile] | 32.7 | –
COc1ncc(C(=O)N2C3CC2CN(c2ccc(-c4cc(-c5cnn(C)c5)cn5ncc(C#N)c45)cn2)C3)cc1F [Example 688, 4-(6-(6-(5-fluoro-6-methoxynicotinoyl)-3,6-diazabicyclo[3.1.1]heptheptan-3-yl)pyridin-3-yl)-6-(1-methyl-1H-pyrazol-4-yl)pyrazolo[1,5-a]pyridine-3-carbonitrile] | – | 50.9 nM
Cn1cc(-c2cc(-c3ccc(C4CCNCC4)cc3)c3c(C#N)cnn3c2)cn1 [Example 301, 6-(1-methyl-1H-pyrazol-4-yl)-4-(4-(piperidin-4-yl)phenyl)pyrazolo[1,5-a]pyridine-3-carbonitrile dihydrochloride] | 158 | –
Cn1cc(-c2cc(-c3ccc(N4CCN(C(=O)C5(O)CC5)CC4)nc3)c3c(C#N)cnn3c2)cn1 [Example 81, 4-(6-(4-(1-hydroxycyclopropane-1-carbonyl)piperazin-1-yl)pyridin-3-yl)-6-(1-methyl-1H-pyrazol-4-yl)pyrazolo[1,5-a]pyridine-3-carbonitrile] | 762 | –
Cn1cc(-c2cc(-c3ccc(N4CCN(C(=O)[C@@H](O)c5ccccc5)CC4)nc3)c3c(C#N)cnn3c2)cn1 [Example 6, (S)-4-(6-(4-(2-hydroxy-2-phenylacetyl)piperazin-1-yl)pyridin-3-yl)-6-(1-methyl-1H-pyrazol-4-yl)pyrazolo[1,5-a]pyridine-3-carbonitrile] | 115 | –
Cn1cc(-c2cc(-c3ccc(N4CCN(C(=O)c5ccccn5)CC4)nc3)c3c(C#N)cnn3c2)cn1 [Example 72, 6-(1-methyl-1H-pyrazol-4-yl)-4-(6-(4-picolinoylpiperazin-1-yl)pyridin-3-yl)pyrazolo[1,5-a]pyridine-3-carbonitrile] | 99.9 | –
Cn1cc(-c2cc(-c3ccc(N4CC5CCC(C4)N5Cc4ccccc4)nc3)c3c(C#N)cnn3c2)cn1 [Example 484, 4-(6-(8-benzyl-3,8-diazabicyclo[3.2.1]octan-3-yl)pyridin-3-yl)-6-(1-methyl-1H-pyrazol-4-yl)pyrazolo[1,5-a]pyridine-3-carbonitrile] | – | 209 nM
Cn1cc(-c2cc(-c3ccc(N4CCN(C(=O)c5c(F)cccc5F)CC4)nc3)c3c(C#N)cnn3c2)cn1 [Example 51, 4-(6-(4-(2,6-difluorobenzoyl)piperazin-1-yl)pyridin-3-yl)-6-(1-methyl-1H-pyrazol-4-yl)pyrazolo[1,5-a]pyridine-3-carbonitrile 2,2,2-trifluoroacetate] | 267 | –
Cn1cc(-c2cc(-c3ccc(N4CCN(C5CCOC5)CC4)nc3)c3c(C#N)cnn3c2)cn1 (centres unmarked) [Example 505, 6-(1-methyl-1H-pyrazol-4-yl)-4-(6-(4-(tetrahydrofuran-3-yl)piperazin-1-yl)pyridin-3-yl)pyrazolo[1,5-a]pyridine-3-carbonitrile bis(2,2,2-trifluoroacetate)] | – | 1300 nM

Now from value to compound:

IC50 (10% FBS) [nM] | IC50 | SMILES
616 | – | Cn1cc(-c2cc(-c3ccc(N4CCN(C(=O)N5CCCC5)CC4)nc3)c3c(C#N)cnn3c2)cn1 [Example 125, 6-(1-methyl-1H-pyrazol-4-yl)-4-(6-(4-(pyrrolidine-1-carbonyl)piperazin-1-yl)pyridin-3-yl)pyrazolo[1,5-a]pyridine-3-carbonitrile]
– | 1030 nM | CN1CCC2(CCCN(c3ccc(-c4cc(-c5cnn(C)c5)cn5ncc(C#N)c45)cn3)C2)CC1 [Example 555, 6-(1-methyl-1H-pyrazol-4-yl)-4-(6-(9-methyl-2,9-diazaspiro[5.5]undecan-2-yl)pyridin-3-yl)pyrazolo[1,5-a]pyridine-3-carbonitrile]
– | 4680 nM | Cn1cc(-c2cc(-c3cnc(N4CCN(Cc5ccccc5)CC4)nc3)c3c(C#N)cnn3c2)cn1 [Example 639, 4-(2-(4-benzylpiperazin-1-yl)pyrimidin-5-yl)-6-(1-methyl-1H-pyrazol-4-yl)pyrazolo[1,5-a]pyridine-3-carbonitrile]
3700 | – | Cn1cc(-c2cc(-c3ccc(N4CCCC4)nc3)c3c(Cl)cnn3c2)cn1 [Example 339, 3-chloro-6-(1-methyl-1H-pyrazol-4-yl)-4-(6-(pyrrolidin-1-yl)pyridin-3-yl)pyrazolo[1,5-a]pyridine]
257 | – | CC(C)OC(=O)N1CC2(CCN(c3ccc(-c4cc(-c5cnn(C)c5)cn5ncc(C#N)c45)cn3)CC2)C1 [Example 222, isopropyl 7-(5-(3-cyano-6-(1-methyl-1H-pyrazol-4-yl)pyrazolo[1,5-a]pyridin-4-yl)pyridin-2-yl)-2,7-diazaspiro[3.5]nonane-2-carboxylate]
2140 | – | CC(C)CC(=O)N1CCN(c2ccc(-c3cc(-c4ccn(C)n4)cn4ncc(C#N)c34)cn2)CC1 [Example 273, 6-(1-methyl-1H-pyrazol-3-yl)-4-(6-(4-(3-methylbutanoyl)piperazin-1-yl)pyridin-3-yl)pyrazolo[1,5-a]pyridine-3-carbonitrile]
– | 986 nM | Cn1cc(-c2cc(-c3ccc(N4CCN(C(=O)N5CCC(C(F)(F)F)C5)CC4)nc3)c3c(C#N)cnn3c2)cn1 (centres unmarked) [Example 391, 6-(1-methyl-1H-pyrazol-4-yl)-4-(6-(4-(3-(trifluoromethyl)pyrrolidine-1-carbonyl)piperazin-1-yl)pyridin-3-yl)pyrazolo[1,5-a]pyridine-3-carbonitrile]
1960 | – | COC[C@@H]1CCCN1C(=O)N1CCN(c2ccc(-c3cc(-c4cnn(C)c4)cn4ncc(C#N)c34)cn2)CC1 [Example 111, (S)-4-(6-(4-(2-(methoxymethyl)pyrrolidine-1-carbonyl)piperazin-1-yl)pyridin-3-yl)-6-(1-methyl-1H-pyrazol-4-yl)pyrazolo[1,5-a]pyridine-3-carbonitrile]
1340 | – | Cn1cc(-c2cc(-c3ccc(N4CCN(C(=O)NC5CCOCC5)CC4)nc3)c3c(C#N)cnn3c2)cn1 [Example 121, 4-(5-(3-cyano-6-(1-methyl-1H-pyrazol-4-yl)pyrazolo[1,5-a]pyridin-4-yl)pyridin-2-yl)-N-(tetrahydro-2H-pyran-4-yl)piperazine-1-carboxamide]
– | 1660 nM | CC(C)n1cc(CN2CCN(c3ccc(-c4cc(-c5cnn(C)c5)cn5ncc(C#N)c45)cn3)CC2)cn1 [Example 445, 4-(6-(4-((1-isopropyl-1H-pyrazol-4-yl)methyl)piperazin-1-yl)pyridin-3-yl)-6-(1-methyl-1H-pyrazol-4-yl)pyrazolo[1,5-a]pyridine-3-carbonitrile]
662 | – | Cn1cc(-c2cc(-c3cnc(N4CCN(C(=O)[C@H](O)c5ccccc5)CC4)nc3)c3c(C#N)cnn3c2)cn1 [Example 282, (R)-4-(2-(4-(2-hydroxy-2-phenylacetyl)piperazin-1-yl)pyrimidin-5-yl)-6-(1-methyl-1H-pyrazol-4-yl)pyrazolo[1,5-a]pyridine-3-carbonitrile]
– | ≥ 5000 nM | Cn1cc(-c2cc(-c3ccc(N4CCN(Cc5ccccc5)CC4)nc3)c3c(C#N)cnn3c2)c(C2CC2)n1 [Example 619, 4-(6-(4-benzylpiperazin-1-yl)pyridin-3-yl)-6-(3-cyclopropyl-1-methyl-1H-pyrazol-4-yl)pyrazolo[1,5-a]pyridine-3-carbonitrile]
1550 | – | Cn1cc(-c2cc(-c3ccc(N4CC5(CCN(C(=O)OC(C)(C)C)CC5)C4)nc3)c3c(C#N)cnn3c2)cn1 [Example 223, tert-butyl 2-(5-(3-cyano-6-(1-methyl-1H-pyrazol-4-yl)pyrazolo[1,5-a]pyridin-4-yl)pyridin-2-yl)-2,7-diazaspiro[3.5]nonane-7-carboxylate]
– | 804 nM | Cn1cc(-c2cc(-c3ccc(N4CCN(Cc5ccc(F)cn5)CC4)nc3)c3c(C#N)cnn3c2)cn1 [Example 462, 4-(6-(4-((5-fluoropyridin-2-yl)methyl)piperazin-1-yl)pyridin-3-yl)-6-(1-methyl-1H-pyrazol-4-yl)pyrazolo[1,5-a]pyridine-3-carbonitrile]
– | 787 nM and 656 nM | Cn1cc(-c2cc(-c3ccc(N4CCC(Cc5ccc(Cl)cc5)CC4)nc3)c3c(C#N)cnn3c2)cn1 [Example 536, 4-(6-(4-(4-chlorobenzyl)piperidin-1-yl)pyridin-3-yl)-6-(1-methyl-1H-pyrazol-4-yl)pyrazolo[1,5-a]pyridine-3-carbonitrile]
– | 1040 nM | Cn1cc(-c2cc(-c3ccc(N4CCN(C(=O)N5CC6C(C5)C6(C)C)CC4)nc3)c3c(C#N)cnn3c2)cn1 (centres unmarked) [Example 384, 4-(6-(4-(6,6-dimethyl-3-azabicyclo[3.1.0]hexane-3-carbonyl)piperazin-1-yl)pyridin-3-yl)-6-(1-methyl-1H-pyrazol-4-yl)pyrazolo[1,5-a]pyridine-3-carbonitrile]
– | 1670 nM | COc1cncc(CN2CCN(c3ccc(-c4cc(-c5cnn(C)c5)cn5ncc(C#N)c45)cn3)CC2)c1 [Example 442, 4-(6-(4-((5-methoxypyridin-3-yl)methyl)piperazin-1-yl)pyridine-3-yl)-6-(1-methyl-1H-pyrazol-4-yl)pyrazolo[1,5-a]pyridine-3-carbonitrile]
